Data set [1] concerns the target T1, MAO-B (Homo sapiens, UniProt P27338).
T1 sequence (P27338 1-520): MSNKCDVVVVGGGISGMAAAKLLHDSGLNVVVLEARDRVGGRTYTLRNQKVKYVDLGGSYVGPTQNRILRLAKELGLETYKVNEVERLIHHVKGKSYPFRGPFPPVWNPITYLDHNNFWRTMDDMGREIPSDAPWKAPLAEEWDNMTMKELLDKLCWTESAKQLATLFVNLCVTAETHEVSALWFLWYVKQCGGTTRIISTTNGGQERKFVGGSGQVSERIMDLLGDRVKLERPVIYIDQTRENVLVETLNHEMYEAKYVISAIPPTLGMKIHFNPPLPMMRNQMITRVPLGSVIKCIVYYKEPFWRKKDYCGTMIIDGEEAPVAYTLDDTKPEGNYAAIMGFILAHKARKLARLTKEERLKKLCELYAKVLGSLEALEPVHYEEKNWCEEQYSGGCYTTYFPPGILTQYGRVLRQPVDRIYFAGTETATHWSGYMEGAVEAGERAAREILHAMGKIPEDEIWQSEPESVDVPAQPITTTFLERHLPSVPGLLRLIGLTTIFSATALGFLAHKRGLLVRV
The data set can be described thus: MAO-B inhibition, recombinant enzyme, benzylamine substrate. It counts as biochemical. Particulars: for SI (MAO-B compared with MAO-A): IC50 (MAO-A)/IC50 (MAO-B); for IC50: IC50 MAO-B; for remaining activity at 1 µM: read-out: residual activity (%) MAO-B.

The target of data set [2] is BChE (Equus caballus, UniProt P81908). Particulars: 10 μM.
BChE, sequence (P81908 whole entry): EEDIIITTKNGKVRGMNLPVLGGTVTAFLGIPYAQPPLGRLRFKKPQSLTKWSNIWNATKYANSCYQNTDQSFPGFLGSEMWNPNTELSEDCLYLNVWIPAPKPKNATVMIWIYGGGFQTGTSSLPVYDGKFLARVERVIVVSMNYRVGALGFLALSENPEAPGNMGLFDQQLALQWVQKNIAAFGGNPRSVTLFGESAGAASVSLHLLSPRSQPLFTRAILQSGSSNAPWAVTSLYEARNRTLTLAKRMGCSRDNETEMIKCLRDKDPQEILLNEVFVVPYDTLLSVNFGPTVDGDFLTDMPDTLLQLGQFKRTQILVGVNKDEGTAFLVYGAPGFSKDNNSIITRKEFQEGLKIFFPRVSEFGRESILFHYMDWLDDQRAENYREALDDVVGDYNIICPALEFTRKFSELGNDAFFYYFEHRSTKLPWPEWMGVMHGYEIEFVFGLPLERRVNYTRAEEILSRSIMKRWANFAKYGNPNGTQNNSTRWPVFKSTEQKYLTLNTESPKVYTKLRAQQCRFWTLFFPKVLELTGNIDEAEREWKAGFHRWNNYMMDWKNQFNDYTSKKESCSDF
Data set [3] has as its target T2, MAO-A (Homo sapiens, UniProt P21397).
T2 sequence (P21397 1-527): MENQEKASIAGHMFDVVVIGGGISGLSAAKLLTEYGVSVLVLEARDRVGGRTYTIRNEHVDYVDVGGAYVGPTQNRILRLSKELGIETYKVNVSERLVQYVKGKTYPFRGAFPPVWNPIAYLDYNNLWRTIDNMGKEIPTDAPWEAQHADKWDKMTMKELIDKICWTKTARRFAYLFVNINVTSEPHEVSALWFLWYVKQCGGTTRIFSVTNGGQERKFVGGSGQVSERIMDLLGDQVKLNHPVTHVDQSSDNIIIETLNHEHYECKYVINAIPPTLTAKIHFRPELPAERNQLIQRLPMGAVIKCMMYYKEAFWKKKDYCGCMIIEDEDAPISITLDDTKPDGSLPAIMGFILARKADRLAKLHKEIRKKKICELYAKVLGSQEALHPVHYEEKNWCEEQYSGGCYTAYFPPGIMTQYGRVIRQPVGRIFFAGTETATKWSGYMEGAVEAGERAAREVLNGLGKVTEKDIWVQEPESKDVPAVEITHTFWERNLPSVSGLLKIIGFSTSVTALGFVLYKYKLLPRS
The experiment in a line: biochemical. Particulars: for remaining activity at 10 µM: read-out: residual activity (%) MAO-A.

The target of data set [4] is BACE1 (Homo sapiens, UniProt P56817). The experiment in a line: biochemical. To be noted: read-out: residual activity (%) BACE1.
BACE1, sequence (P56817 46-501): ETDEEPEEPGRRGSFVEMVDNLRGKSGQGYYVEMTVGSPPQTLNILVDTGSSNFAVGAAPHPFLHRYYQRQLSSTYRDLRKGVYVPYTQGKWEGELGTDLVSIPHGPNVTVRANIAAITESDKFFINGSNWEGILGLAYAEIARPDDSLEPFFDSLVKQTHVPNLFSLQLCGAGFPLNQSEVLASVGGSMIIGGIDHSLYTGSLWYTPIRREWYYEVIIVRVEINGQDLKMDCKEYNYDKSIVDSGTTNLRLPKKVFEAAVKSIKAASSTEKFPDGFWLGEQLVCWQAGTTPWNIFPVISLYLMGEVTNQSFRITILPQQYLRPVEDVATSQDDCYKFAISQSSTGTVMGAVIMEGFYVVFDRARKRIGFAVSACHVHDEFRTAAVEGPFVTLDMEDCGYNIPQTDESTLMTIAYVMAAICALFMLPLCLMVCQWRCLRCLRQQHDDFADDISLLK
In data set [5] the target is AChE (Electrophorus electricus, UniProt O42275). The data set can be described thus: AChE inhibition. To be noted: 10 μM.
AChE, sequence (O42275 24-633): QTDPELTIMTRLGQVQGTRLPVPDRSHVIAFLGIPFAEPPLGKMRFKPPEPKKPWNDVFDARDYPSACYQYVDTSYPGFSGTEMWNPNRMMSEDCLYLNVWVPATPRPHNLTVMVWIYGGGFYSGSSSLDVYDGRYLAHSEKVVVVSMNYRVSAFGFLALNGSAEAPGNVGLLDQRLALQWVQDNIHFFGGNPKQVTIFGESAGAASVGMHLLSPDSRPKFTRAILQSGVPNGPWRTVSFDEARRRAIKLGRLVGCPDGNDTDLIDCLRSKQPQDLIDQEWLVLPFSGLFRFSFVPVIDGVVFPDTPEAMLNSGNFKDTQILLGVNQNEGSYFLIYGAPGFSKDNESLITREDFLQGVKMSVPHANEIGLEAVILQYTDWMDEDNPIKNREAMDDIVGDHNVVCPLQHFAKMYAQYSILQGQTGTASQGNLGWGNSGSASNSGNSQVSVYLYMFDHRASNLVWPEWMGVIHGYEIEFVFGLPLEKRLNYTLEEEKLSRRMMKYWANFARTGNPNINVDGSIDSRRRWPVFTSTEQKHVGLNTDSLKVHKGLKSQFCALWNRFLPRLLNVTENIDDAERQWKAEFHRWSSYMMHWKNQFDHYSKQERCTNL
Data set [6] has as its system Vero cells. The experiment in a line: Cytotoxicity on Vero cells, MTT method. It is filed as cell-based, African green monkey. Particulars: 100 μg/mL, 24 h.
Data set [7] concerns Vero cells. The experiment in a line: Intracellular ROS assay in H2O2-treated Vero cells. It is filed as cell-based, African green monkey. Particulars: 24 h drug treatment, vs H2O2-treated control.

Entries after “also recorded” stand apart in the source; their conditions may differ.

For orientation: IC50 means the concentration needed to halve the response being measured.

For the compound `O=C(/C=C/C=C/c1ccccc1)c1ccc(Cl)cc1` [MK1, (2E,4E)-1-(4-Chlorophenyl)-5-phenylpenta-2,4-dien-1-one], in data set [1], the “SI (MAO-B compared with MAO-A)” value stood at 1498.2, the half-maximal inhibitory concentration (IC50) was 0.0112 ± 0.00165 µM and the remaining activity at 1 µM is 2.17 ± 1.49%. In addition, the “residual activity (%) BChE” value in data set [2] worked out at 94.1 ± 4.72%. Besides, in data set [3], inhibition was half-maximal at 16.7 ± 0.4 µM (IC50) and the remaining activity at 10 µM was found to be 83 ± 2.71%. Besides, the remaining activity at 10 µM in data set [4] worked out at 77.1 ± 0.0087%. The “residual activity (%) AChE” value in data set [5] is 84.0 ± 0.23%.
For `O=C(/C=C/C=C/c1ccc(Br)cc1)c1ccc(Cl)cc1` [MK2, (2E,4E)-5-(4-Bromophenyl)-1-(4-chlorophenyl)penta-2,4-dien-1-one], in data set [1], the “SI (MAO-B compared with MAO-A)” value was found to be 232.4, the 50% inhibitory concentration (IC50) came out at 0.101 ± 0.00163 µM and the remaining activity at 1 µM is 14.3 ± 0.43%. Further, the “residual activity (%) BChE” value in data set [2] worked out at 95.4 ± 2.86%. Also, in data set [3], the IC50 turned out to be 23.5 ± 0.86 µM and the remaining activity at 10 µM was determined as 97.8 ± 0.16%. In addition, the remaining activity at 10 µM in data set [4] came out at 81.4 ± 0.97%. Also, the “residual activity (%) AChE” value in data set [5] was found to be 82.4 ± 0.98%.
On to `COc1ccc(/C=C/C=C/C(=O)c2ccc(Cl)cc2)cc1` [MK3, (2E,4E)-1-(4-Chlorophenyl)-5-(4-methoxyphenyl)penta-2,4-dien-1-one], for which, in data set [1], the “SI (MAO-B compared with MAO-A)” value is given as 1290.2, the concentration for half-maximal inhibition (IC50) is 0.0131 ± 0.00081 µM and the remaining activity at 1 µM was found to be 5.81 ± 0.27%. Moreover, the “residual activity (%) BChE” value in data set [2] is 83.2 ± 0.46%. Besides, in data set [3], the IC50 was 16.9 ± 0.5 µM and the remaining activity at 10 µM is 73.6 ± 2.83%. The remaining activity at 10 µM in data set [4] was 84.8 ± 0.53%. Besides, the “residual activity (%) AChE” value in data set [5] is reported as 81.4 ± 1.06%.
`O=C(/C=C/C=C/c1ccc(F)cc1)c1ccc(Cl)cc1` [MK4, (2E,4E)-1-(4-Chlorophenyl)-5-(4-fluorophenyl)penta-2,4-dien-1-one]: in data set [1], the “SI (MAO-B compared with MAO-A)” value is 1609.8, the IC50 worked out at 0.00967 ± 0.00047 µM and the remaining activity at 1 µM amounted to 1.61 ± 2.28%. The “residual activity (%) BChE” value in data set [2] was determined as 94.9 ± 7.16%. In data set [3], half-maximal inhibition (IC50) was put at 15.6 ± 0.63 µM and the remaining activity at 10 µM is 77 ± 6.2%. Moreover, the remaining activity at 10 µM in data set [4] was found to be 72.5 ± 0.9%. The “residual activity (%) AChE” value in data set [5] came to 90.7 ± 0.57%.
For the compound `O=C(/C=C/C=C/c1ccc([N+](=O)[O-])cc1)c1ccc(Cl)cc1` [MK5, (2E,4E)-1-(4-Chlorophenyl)-5-(4-nitrophenyl)penta-2,4-dien-1-one], in data set [1], the “SI (MAO-B compared with MAO-A)” value was determined as 4783.0, the IC50 turned out to be 0.00402 ± 0.00013 µM and the remaining activity at 1 µM stood at 5.81 ± 0.27%. Further, the “toxicity by cellular morphology, phase-contrast microscopy” value in data set [6] is given as “no signs of toxicity”. Further, the “intracellular ROS scavenging” value in data set [7] is on record as “significant scavenging effect of reactive oxygen species; also recorded: significant ROS scavenging effect”. Also, the “residual activity (%) BChE” value in data set [2] is on record as 71.6 ± 1.05%. Moreover, in data set [3], the IC50 is 19.2 ± 0.94 µM and the remaining activity at 10 µM turned out to be 72.9 ± 0.44%. In data set [4], the remaining activity at 10 µM came out at 73.3 ± 2.51%. In data set [5], the “residual activity (%) AChE” value was 74.1 ± 1.42%.
As to `O=C(/C=C/C=C/c1ccc(Br)cc1)c1ccc(Br)cc1` [MK7, (2E,4E)-1,5-Bis(4-bromophenyl)penta-2,4-dien-1-one], in data set [1], the “SI (MAO-B compared with MAO-A)” value is 1400.0, the half-inhibitory concentration (IC50) was 0.0155 ± 6e-05 µM and the remaining activity at 1 µM worked out at 8.9 ± 0.15%. Also, in data set [2], the “residual activity (%) BChE” value was 99.2 ± 1.09%. Further, in data set [3], half-maximal inhibition (IC50) was put at 21.7 ± 2.01 µM and the remaining activity at 10 µM amounted to 85.4 ± 1.99%. Also, the remaining activity at 10 µM in data set [4] worked out at 84.5 ± 0.91%. In data set [5], the “residual activity (%) AChE” value turned out to be 75.8 ± 0.73%.
With `COc1ccc(/C=C/C=C/C(=O)c2ccc(Br)cc2)cc1` [MK8, (2E,4E)-1-(4-Bromophenyl)-5-(4-methoxyphenyl)penta-2,4-dien-1-one], in data set [1], the “SI (MAO-B compared with MAO-A)” value amounted to 1443.8, the half-inhibitory concentration (IC50) stood at 0.0167 ± 0.00062 µM and the remaining activity at 1 µM came out at 7.85 ± 0.22%. The “residual activity (%) BChE” value in data set [2] was 80.7 ± 7.70%. For the same compound, in data set [3], half-maximal inhibition (IC50) required 24.1 ± 0.038 µM and the remaining activity at 10 µM worked out at 69.6 ± 2.03%. For the same compound, the remaining activity at 10 µM in data set [4] was determined as 80.9 ± 1.67%. Also, the “residual activity (%) AChE” value in data set [5] stood at 86.1 ± 5.10%.
On to `O=C(/C=C/C=C/c1ccc(F)cc1)c1ccc(Br)cc1` [MK9, (2E,4E)-1-(4-Bromophenyl)-5-(4-fluorophenyl)penta-2,4-dien-1-one], for which, in data set [1], the “SI (MAO-B compared with MAO-A)” value is listed as 1671.7, the IC50 was determined as 0.0135 ± 0.00106 µM and the remaining activity at 1 µM was determined as 2.6 ± 0.57%. In addition, the “residual activity (%) BChE” value in data set [2] was 87.4 ± 6.95%. Also, in data set [3], the IC50 came out at 22.5 ± 0.047 µM and the remaining activity at 10 µM was found to be 74.9 ± 1.29%. In data set [4], the remaining activity at 10 µM was 65 ± 1.61%. In data set [5], the “residual activity (%) AChE” value was determined as 57.7 ± 0.00%.
Consider `O=C(/C=C/C=C/c1ccc([N+](=O)[O-])cc1)c1ccc(Br)cc1` [MK10, (2E,4E)-1-(4-Bromophenyl)-5-(4-nitrophenyl)penta-2,4-dien-1-one], for which, in data set [1], the “SI (MAO-B compared with MAO-A)” value was 481.0, the IC50 was 0.0406 ± 0.00087 µM and the remaining activity at 1 µM is 3.4 ± 0.14%. In data set [2], the “residual activity (%) BChE” value turned out to be 87.9 ± 1.86%. In data set [3], the IC50 turned out to be 19.5 ± 0.59 µM and the remaining activity at 10 µM stood at 69.1 ± 1.32%. Also, in data set [4], the remaining activity at 10 µM was determined as 69.4 ± 1.03%. Also, the “residual activity (%) AChE” value in data set [5] is 84.0 ± 0.73%.
On to `O=C(/C=C/C=C/c1ccc(Br)cc1)c1ccc(F)cc1` [MK11, (2E,4E)-5-(4-Bromophenyl)-1-(4-fluorophenyl)penta-2,4-dien-1-one], for which, in data set [1], the “SI (MAO-B compared with MAO-A)” value worked out at 1394.7, the IC50 turned out to be 0.0198 ± 0.00053 µM and the remaining activity at 1 µM was 3.45 ± 0.21%. The “residual activity (%) BChE” value in data set [2] worked out at 89.2 ± 6.58%. In addition, in data set [3], the IC50 worked out at 27.5 ± 0.82 µM and the remaining activity at 10 µM was 76.9 ± 3.02%. Further, in data set [4], the remaining activity at 10 µM amounted to 71.4 ± 1.03%. In data set [5], the “residual activity (%) AChE” value is 77.8 ± 2.19%.
`O=C(/C=C/C=C/c1ccc([N+](=O)[O-])cc1)c1ccc(F)cc1` [MK13, (2E,4E)-1-(4-Fluorophenyl)-5-(4-nitrophenyl)penta-2,4-dien-1-one]: in data set [1], the “SI (MAO-B compared with MAO-A)” value was 5635.2, the IC50 was determined as 0.00424 ± 0.00013 µM and the remaining activity at 1 µM is 1.95 ± 0.067%. Further, the “residual activity (%) BChE” value in data set [2] is on record as 97.8 ± 1.55%. Besides, in data set [3], the IC50 stood at 23.7 ± 0.17 µM and the remaining activity at 10 µM came out at 71.5 ± 8.06%. The remaining activity at 10 µM in data set [4] is 76.7 ± 0.64%. In data set [5], the “residual activity (%) AChE” value is on record as 91.5 ± 0.80%.
Consider `O=C(/C=C/C=C/c1ccc([N+](=O)[O-])cc1)c1ccccc1` [MK15, (2E,4E)-5-(4-Nitrophenyl)-1-phenylpenta-2,4-dien-1-one], for which, in data set [1], the “SI (MAO-B compared with MAO-A)” value worked out at 1025.8, the IC50 came out at 0.0124 ± 0.00792 µM and the remaining activity at 1 µM was -3.52%. Moreover, in data set [2], the “residual activity (%) BChE” value came to 80.2 ± 1.55%. Besides, in data set [3], half-maximal inhibition (IC50) required 12.7 ± 0.57 µM and the remaining activity at 10 µM turned out to be 54.4 ± 5.37%. Moreover, the remaining activity at 10 µM in data set [4] was 89.5 ± 0.92%. In addition, the “residual activity (%) AChE” value in data set [5] was found to be 68.8 ± 0.80%.

The values are drawn from paper PMC8908507 (ACS Omega, 2022).
